Data as given in patent US6603023B2 (priority 1996, dated 2003).
Where two headings read alike, the source gives them in different places. Marks after values point to notes of the source that are not given here.

Key:
[1] = test system: MCF-7; assay: SRB cytotoxicity, MCF-7; assay type: cell-based, human; conditions: Homo sapiens, MCF7, 72 h
Procedure, shortened: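 Monolayer MCF-7 cultures exposed to six to seven drug concentrations in duplicate, then fixed with trichloroacetic acid and stained 30 min with 0.4% sulforhodamine B. Bound dye extracted with unbuffered Tris base, absorbance read at 570 nm; values derived by median-effect plot analysis.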

[2] = test system: CCRF-CEM/Taxol®; assay: CCRF-CEM/Taxol xenograft, i.v. 6 h infusion; assay type: in vivo, nude mice; conditions: CCRF/Taxol Leukemia; dEpoB 30 mg/kg Q2D x 6, Taxol 15 mg/kg Q2D x 6
Description: Treatment on days 6, 8, 10, 12 and 14.
Treatment on days 19, 21, 23, 25, 27, 39, 41, 43, 45 and 47.

[3] = test system: MDR human mammary adenocarcinoma MCF-7/Adr xenograft; assay: in vivo
Method: (§1) DMSO was used as a vehicle for epothilones. Each mouse received ≦40 μL DMSO in all experiments.
(§2) Athymic nude mice (nu/nu) were used for MX-1 and MCF-7/Adr human mammary carcinoma xenografts. Mice were obtained from Taconic Laboratory Animals and Service (Germantown, N.Y.: outbred, Swiss background).

[4] = test system: human mammary carcinoma MX-1 xenograft; set-up: Toxicity toward Nude Mice: key to the marks not given beside the values; conditions: for Average Body Weight, Day 7: initial weight, first treatment day
Method: as §1, §2

[5] = MCF-7/Adr Breast, dEpoB 30 mg/kg Q2D x 5, Taxol 24 mg/kg Q2D x 5
[6] = Taxol 24 mg/kg, 6 hr i.v. infusion Q2D x 5 (day 8-16)
[7] = dEpo B 30, Taxol 15 mg/kg, 6 hr i.v. infusion Q2D x 5 (day 8-16)
[8] = high doses: Taxol 12, Adriamycin 3, Camptothecin 3.0 mg/kg i.p. day 8,10,12,14,16
[9] = male, athymic nude (nu/nu), outbred, Swiss background, mouse, in vivo
[10] = Taxol 5 mg/kg on day 8-16 and 18-26, n = 10
[11] = dEpo B 30, Taxol 15 mg/kg, 6 hr i.v. infusion Q2D x 5 (day 8-16), TD: Tumor disappearance
[12] = extended experiment, Desoxyepo B 40, Taxol 5 mg/kg i.p. Q2D day 8-16 and 18-26
[13] = high doses: dEpoB 25, EpoB 0.6, Taxol 10, Vinblastine 0.4 mg/kg i.p. Q2D from day 7
[14] = low doses: dEpoB 15, EpoB 0.3, Taxol 5, Vinblastine 0.2 mg/kg i.p. Q2D day 7-15

SMILES: CC(=O)O[C@H]1C(=O)[C@@]2(C)[C@H]([C@H](OC(=O)c3ccccc3)[C@]3(O)C[C@H](OC(=O)[C@H](O)[C@@H](NC(=O)c4ccccc4)c4ccccc4)C(C)=C1C3(C)C)[C@]1(OC(C)=O)CO[C@@H]1C[C@@H]2O [Taxol ®, paclitaxel]
- IC50 [1]: 3.3 nM
- Lowest Average Tumor Size (T/C) [2]: 1.09 T/C
- Tumor Disappearance [2]: 0
- Lowest Average Tumor Size (T/C) [3, 5]: 0.71 T/C
- Tumor Disappearance [3, 5]: 0
- tumor size reduction ([3]; Taxol 6 mg/kg i.p. Q2Dx5, day 17): 100%
- Average Body Weight (change), Day 14 [3, 6]: -4.8 g
- Average Body Weight (change), Day 16 [3, 6]: -5.3 g
- Average Body Weight (change), Day 18 [3, 6]: -6.0 g
- Average Tumor Size (T/C), Day 14 [3, 6]: 0.73 T/C
- Average Tumor Size (T/C), Day 16 [3, 6]: 0.71* T/C
- Average Tumor Size (T/C), Day 18 [3, 6]: 0.73* T/C
- Average Tumor Size (T/C), Day 14 [3, 7]: 0.81 T/C
- Average Tumor Size (T/C), Day 16 [3, 7]: 0.89 T/C
- Average Tumor Size (T/C), Day 18 [3, 7]: 0.76 T/C
- Average Tumor Volume (T/C), Day 11 [3, 8]: 0.50 T/C
- Average Tumor Volume (T/C), Day 13 [3, 8]: 0.51 T/C
- Average Tumor Volume (T/C), Day 15 [3, 8]: 0.32 T/C
- Average Tumor Volume (T/C), Day 17 [3, 8]: 0.40 T/C
- Toxicity Death [3, 9]: 0/4
- lethality [3, 9]: 3/7
- tumor growth suppression ([3]; paclitaxel 5 mg/kg (so in the source)): slight growth suppression
- Average Body Weight Change ([4]; 5 mg/kg i.p. Q2Dx5 from day 7, day 11): -0.1 g
- Average Body Weight Change ([4]; 5 mg/kg i.p. Q2Dx5 from day 7, day 13): +0.4 g
- Average Body Weight Change ([4]; 5 mg/kg i.p. Q2Dx5 from day 7, day 15): +1.1 g
- Average Body Weight Change ([4]; 5 mg/kg i.p. Q2Dx5 from day 7, day 17): +1.2 g
- Tumor Disapp. ([4]; 5 mg/kg i.p. Q2Dx5 from day 9): 0/6
- Average Body Weight Change ([4]; 5 mg/kg i.p. Q2Dx5 from day 9, day 13): -1.1 g
- Average Body Weight Change ([4]; 5 mg/kg i.p. Q2Dx5 from day 9, day 15): -2.0 g
- Average Body Weight Change ([4]; 5 mg/kg i.p. Q2Dx5 from day 9, day 17): -1.0 g
- Average Body Weight Change ([4]; 5 mg/kg i.p. Q2Dx5 from day 9, day 19): -0.2 g
- Tumor Disappearance ([4]; 5 mg/kg i.p. d8,10,12,14,16): 2/10
- Tumor Disappearance ([4]; 5 mg/kg i.p. d18-26, extended after d8-16, day 20): 0/10^
- Tumor Disappearance ([4]; 5 mg/kg i.p. d18-26, extended after d8-16, day 22): 0/10
- Tumor Disappearance ([4]; 5 mg/kg i.p. d18-26, extended after d8-16, day 24): 0/10
- Tumor Disappearance ([4]; 5 mg/kg i.p. d18-26, extended after d8-16, day 26): 0/10
- Tumor Disappearance ([4]; 5 mg/kg i.p. d18-26, extended after d8-16, day 28): 0/10
- Average Body Weight Change ([4]; 10 mg/kg i.p. Q2Dx5 from day 7, day 11): -2.7 g
- Average Body Weight Change ([4]; 10 mg/kg i.p. Q2Dx5 from day 7, day 13): -1.1 g
- Average Body Weight Change ([4]; 10 mg/kg i.p. Q2Dx5 from day 7, day 15): -0.3 g
- Average Body Weight Change ([4]; 10 mg/kg i.p. Q2Dx5 from day 7, day 17): +2.2 g
- Tumor Disappearance ([4]; 10 mg/kg i.p. d8,10,12,14,16): 2/6
- tumor reappeared on day ([4]; 10 mg/kg, no extended test): Reappeared on day 38
- Tumor Disappearance ([4]; 10 mg/kg, no extended test, day 16): 1/6 on day 16
- Lowest Average Tumor Size (T/C) ([4]; MX-1, dEpoB 30 mg/kg Q2D x 6, Taxol 15 mg/kg Q2D x 6): 0 T/C
- tumor volume reduction ([4]; Taxol 5 mg/kg i.p. Q2Dx5 from day 8): 53%
- Tumor Size (group average), Day 8 [4, 10]: 17 mm^3
- Tumor Size (group average), Day 10 [4, 10]: 45 mm^3
- Tumor Size (group average), Day 12 [4, 10]: 54 mm^3
- Tumor Size (group average), Day 14 [4, 10]: 128 mm^3
- Tumor Size (group average), Day 16 [4, 10]: 311 mm^3
- Tumor Size (group average), Day 18 [4, 10]: 596 mm^3
- Tumor Size (group average), Day 20 [4, 10]: 1114 mm^3
- Tumor Size (group average), Day 22 [4, 10]: 1930 mm^3
- Tumor Size (group average), Day 24 [4, 10]: 2285 mm^3
- Tumor reappearance (Reappear on day) ([4]; Taxol 10 mg/kg, no extended test): Reappear on day 38
- Tumor Disappearance ([4]; Taxol 10 mg/kg, on day 16, no extended test): 1/6 on day 16,
- Tumor Disapp. ([4]; Taxol 15 mg/kg i.v. Q2Dx5 from day 9): 2/6
- Average Body Weight (change), Day 14 [4, 6]: -4.8 g
- Average Body Weight (change), Day 16 [4, 6]: -5.3 g
- Average Body Weight (change), Day 18 [4, 6]: -6.0 g
- Average Body Weight (change), Day 20 [4, 6]: -6.2 g
- Tumor Disappearance [4, 6]: 4/4
- Average Tumor Size (T/C), Day 14 ([4]; Taxol 24 mg/kg, 6 hr i.v. infusion Q2D x 5 (day 8-16), TD: Tumor disappearance): 0.03 T/C
- Tumor Disappearance [4, 7]: 4/4
- Average Tumor Size (T/C), Day 14 [4, 11]: 0.06 T/C
- Average Tumor Size (T/C), Day 16 [4, 11]: 0.01 T/C
- Average Body Weight Change, Day 20 [4, 12]: -1.6 g
- Average Body Weight Change, Day 22 [4, 12]: -0.3 g
- Average Body Weight Change, Day 24 [4, 12]: +0.1 g
- Average Body Weight Change, Day 26 [4, 12]: -0.6 g
- Average Body Weight Change, Day 28 [4, 12]: -0.4 g
- Tumor Disappearance, Day 20 [4, 12]: 0/10
- Tumor Disappearance, Day 22 [4, 12]: 0/10
- Tumor Disappearance, Day 24 [4, 12]: 0/10
- Tumor Disappearance, Day 26 [4, 12]: 0/10
- Tumor Disappearance, Day 28 [4, 12]: 0/10
- Average Tumor Volume (T/C), Day 11 [4, 13]: 0.43 T/C
- Average Tumor Volume (T/C), Day 13 [4, 13]: 0.37 T/C
- Average Tumor Volume (T/C), Day 15 [4, 13]: 0.12 T/C
- Average Tumor Volume (T/C), Day 17 [4, 13]: 0.11 T/C
- Average Body Weight, Day 7 [4, 13]: 27.6 g
- Average Body Weight, Day 7 [4, 14]: 26.9 g
- Average Tumor Volume (T/C), Day 11 [4, 14]: 0.54 T/C
- Average Tumor Volume (T/C), Day 13 [4, 14]: 0.46 T/C
- Average Tumor Volume (T/C), Day 15 [4, 14]: 0.40 T/C
- Average Tumor Volume (T/C), Day 17 [4, 14]: 0.45 T/C
- # Mice Died ([4]; male, athymic nude (nu/nu), mouse, in vivo): 0/10
- # Died of toxicity [4, 9]: 2/10
- # Mice Died [4, 9]: 1/6
- lethality [4, 9]: 2/6
- lethality (mice died of toxicity) [4, 9]: 2/10
- mice died of toxicity [4, 9]: 2 out of 10
- Tumor Disappearance ([4]; mouse, in vivo): 5/5
- mice died of toxicity ([4]; mouse, in vivo): four out of seven
- Toxicity toward Nude Mice ([4]; mouse, in vivo, ip, 15 mg/kg): ++++
- Toxicity toward Nude Mice ([4]; mouse, in vivo, ip, 35 mg/kg): ++
- Toxicity toward Nude Mice ([4]; mouse, in vivo, iv, 15 mg/kg): ++
- Toxicity toward Nude Mice ([4]; mouse, in vivo, iv, 24 mg/kg): ++
- Toxicity toward Nude Mice ([4]; mouse, in vivo, iv, 30 mg/kg): ++
- reduction in tumor volume ([4]; paclitaxel 5 mg/kg): 55%
- average tumor size on day 24 ([4]; paclitaxel 5 mg/kg Q2Dx5 i.p. d8-16 and d18-26, n=10): 2285±97 mm^3
- tumor reduction ([4]; paclitaxel 10 mg/kg): 89%
